One series concerns tubulin. In words: Microtubule (tubulin) polymerization-depolymerization measurements. Format: biochemical. The settings on record: for suppression of calcium chloride promoted depolymerization: 10^-6 M, CaCl2 0.25 mM, 1.0 mM GTP, 37° C. As to the method: Tubulin polymerization-depolymerization measurements are illustrate in FIG. 3. Negative controls are shown with triangles; positive taxol controls are shown with diamonds; and taxol-2'-MPT, i.e., compound 2 is shown with dots.
More particularly, measurement were performed in 96 well plates at 37° C. following the protocol of R. Merlock and W. Wrasidlo (Analytical Biochemistry 1993, in press). Calcium chloride addition is indicated by the arrow. In each case, 1.0 mM GTP was used to promote the initial polymerization of tubulin. Negative control employed tubulin (1.0 mg/mL) alone, CaCl2 (0.25 mM) added after 20 minutes. Positive taxol control employed tubulin (1.0 mg/mL) with taxol (10^-6 M) and CaCl2 (0.25 mM) added after 20 minutes. The experimental taxol-2'-MPTemployed tubulin (1.0 mg/mL) with taxol-2'-MPT (10^-6) and CaCl2 (0.25 mM) added after 20 minutes. Turbidity was measured as optical density at 340 nm using a microplate reader (Molecular Devices Thermomax).

For the next series, the system named is cervical carcinoma. In words: Cytotoxicity, cervical carcinoma (XTT). Conditions: 72 hours. Background: Tetrazolium dyes change colour on reduction, which living cells bring about.
A further series concerns human leukemia. In words: Cytotoxicity, human leukemia (XTT). The settings on record: 72 hours.
For a further series, the system named is metastatic melanoma. In words: Cytotoxicity, metastatic melanoma (XTT). Conditions: 72 hours.
In series [1] the test system is leukemia, ovarian, lung, and breast carcinoma cells. The series is described as follows: Cytotoxicity against a cell line panel (XTT).
Experimental: More particularly, cells were plated on 96 well plates with the following controls: no cells and toxic control (1×10^-3 M SDS). The drug was added to the first set of wells and diluted via standard dilution method from the stock. Plates were incubated at 37° C., 5% CO2 in sterile air in an humidified incubator for 72 hours. An aliquot of 50 μL of a solution of 2,3-bis(methoxy-4-nitro-5-sulfophenyl)-5-[(phenylamino)carbonyl]-1H-tetrazolium hydroxide (XTT), 1 mg mL^-1, in phosphate buffered saline (PBS, 100 mM) was added to the wells. In the presence of viable cells, this colorless clear media is enzymatically altered to give a pink coloration. […] Percentage cytotoxicity was calculated using the formula: %C=1-(OD toxin)(OD growth control)^-1 (100).
Series [2] has as its system A549 non-small cell lung adenocarcinoma xenograft. The series is described as follows: Efficacy in lung tumor xenograft nude mouse model.
Experimental: The tumor model was generated from an ATCC A549 non-small cell lung adenocarcinoma cell line that was maintained under the standard cell proliferation conditions (37° C., 5% carbon dioxide in sterile air). Hemocytometer counted cells suspended in Hanks medium (Gibco, Grand Island, N.Y.) were implanted S.C.
For another series, the system named is serum protein. The series is described as follows: Displacement of the MPT group by serum protein and dialysis of the protein:taxol intermediate. An excerpt: (§1) However, the release of taxol from taxol-2'-MPT can also be catalyzed by serum protein and by proteins having nucleophilic groups. […] Dialysis of the protein:taxol intermediate indicates a dissociation period of hours or days. Displacement of the MPT group by serum proteins seems to be specific for such serum proteins. […] The precise nature of the bonding between the protein and taxol has not been characterized. Scheme 2 illustrates alternative pathways for MPT release.

In another series the test system is serum albumen. In words: Displacement of the MPT group by serum albumen.
Excerpt: as §1

Series [3] in a line: Kinetics of taxol release / breakdown in plasma (HPLC). Format: in vitro ADME, human. Conditions: methylene chloride extraction, 25° C.
The nature of series [4]: Stability measurements of taxol-2'-MPT by HPLC (solid state and aqueous media). In kind it is physicochemical. As to the method:
Due to a difference in retention time using our standard HPLC conditions (see FIG. 1) and differing ultraviolet absorption maxima (l280 /l254 =1.6 for 2 and 0.3 for 1), the stability of 2 was easily assayed by HPLC (FIG. 1). […] In phosphate buffered saline (PBS) or ammonium acetate-phosphate buffer systems of pH 6.0 to 7.3, 2 is stable at 25° C. for over 21 days. Taxol-2'-MPT (2) is, however, unstable in 5% HCl (pH 1.1) and brine.
Under these conditions 20% of total is recovered. More particularly, Taxol-2'-MPT (2) was dissolved in the aqueous system with the aid of sonication for five minutes. Aliquots were then removed at the times shown and partitioned into methylene chloride to quench the reaction. Samples were then analyzed using a Waters Maxima HPLC instrument equipped with an autoinjector (3.9×300 mm C18 column equipped with a precolumn. The flow rate was 1.5 mL/minute. The eluent gradient A-B extended over 30 minutes. "A" was 80% 80 mM ammonium acetate, pH 6.0. "B" was 100% methanol. An ultraviolet diode array detector was employed. The ratio of compound 2 (Rf 16.2 min.) to taxol (compound 1, Rf 16.8 min.) remaining was determined from the relative areas of the peaks after normalization with previously determined calibration curves.

Series [5] is described as follows: Self-assembly: optical density at 340 nm, light scattering and TEM. Format: physicochemical. An excerpt:
Transmission electron microscopy (TEM) confirmed the presence of supramolecular structures in these solutions. […] It is likely that the long term stability of these solutions is due, at least in part, to stabilization provided by this structured environment.

The next series concerns non-serum proteins. The series is described as follows: Displacement of the MPT group by non-serum proteins. Conditions: tested non-serum proteins.
Excerpt: as §1

How the values of series [6] were obtained: The solubility and partition coefficient data for 2 and taxol were determined using an HPLC method.
Solubility was found by forming a solution in water with the aid of sonication for five minutes, centrifugation of the samples, and injection of the supernatant. The values reported were normalized using calibration curves constructed for both compounds by preparing known concentrations in the range 1×10^-6 to 1×10^-3 M in methylene chloride and subjecting to HPLC analysis under the same conditions. […] Partition coefficients were determined by dissolving the compound in the organic phase, shaking the resulting solution with water for ten minutes, and analyzing each phase by HPLC as above.

In a further series the test system is immunoglobulins. The series is described as follows: Displacement of the MPT group by immunoglobulins.
Excerpt: as §1

Where a name gives a salt, the structure may show the parent alone. Some results are limits rather than exact numbers.

Experimental for cervical carcinoma: (§2) More particularly, cells were plated on 96 well plates with the following controls: no cells and toxic control (1×10^-3 M SDS). The drug was added to the first set of wells and diluted via standard dilution method from the stock. Plates were incubated at 37° C., 5% CO2 in sterile air in an humidified incubator for 72 hours. An aliquot of 50 μL of a solution of 2,3-bis(methoxy-4-nitro-5-sulfophenyl)-5-[(phenylamino)carbonyl]-1H-tetrazolium hydroxide (XTT), 1 mg mL^-1, in phosphate buffered saline (PBS, 100 mM) was added to the wells. In the presence of viable cells, this colorless clear media is enzymatically altered to give a pink coloration. The plates were read at 450 nm using a plate reader. Percentage cytotoxicity was calculated using the formula: %C=1-(OD toxin)(OD growth control)^-1 (100).
Experimental for human leukemia: as §2
Experimental for metastatic melanoma: as §2

Consider `CC(=O)O[C@H]1C(=O)[C@@]2(C)[C@H]([C@H](OC(=O)c3ccccc3)[C@]3(O)C[C@H](OC(=O)[C@H](O)[C@@H](NC(=O)c4ccccc4)c4ccccc4)C(C)=C1C3(C)C)[C@]1(OC(C)=O)CO[C@@H]1C[C@@H]2O` [Taxol, taxol], for which the “suppression of calcium chloride promoted depolymerization” value in the series on tubulin is reported as “suppressed by taxol”. Also, in the series on cervical carcinoma, the “cytotoxicity level, cervical carcinoma” value is listed as “Extremely high cytotoxicity levels”. The “cytotoxicity level, human leukemia” value in the series on human leukemia is reported as “Extremely high cytotoxicity levels”. The “cytotoxicity level, metastatic melanoma” value in the series on metastatic melanoma is listed as “Extremely high cytotoxicity levels”.

As for `CC(=O)O[C@H]1C(=O)[C@@]2(C)[C@H]([C@H](OC(=O)c3ccccc3)[C@]3(O)C[C@H](OC(=O)[C@H](Oc4cccc[n+]4C)[C@@H](NC(=O)c4ccccc4)c4ccccc4)C(C)=C1C3(C)C)[C@]1(OC(C)=O)CO[C@@H]1C[C@@H]2O` [Compound 2, Taxol-2'-MPT (methylpyridinium tosylate)], in the series on tubulin, the “suppression of calcium chloride promoted depolymerization” value is “not by taxol-2'-MPT”. For the same molecule, the “conversion to taxol in assay buffer” value in the series with tubulin (buffered aqueous environment of this assay) is on record as “not converted to taxol”. Also, the microtubule polymerization-depolymerization profile entry with tubulin (compared with GTP-saline controls and taxol) is “very similar to GTP-saline controls and drastically different from taxol”. For the same molecule, in the series with tubulin (inferred from polymerization assay), the binding to tubulin result is “does not appear to bind to tubulin in the manner of taxol”. Moreover, the “cytotoxicity (discussion statement)” value in series [1] is “lack of cytotoxicity”. Also, the differential cytotoxicity profile entry in [1] (2 compared with taxol) was “similar, although some differences were noted”. In series [2] (I.P. day 1,3, and 7, 2 23.9 mg/kg, taxol 18.0 mg/kg, preliminary data), the “control of tumor growth” value is on record as “at least comparable to that of taxol”. For the same molecule, in series [2] (inferred from xenograft results), the “conversion to taxol in vivo” value is “converted rapidly to taxol in vivo”. Also, the “displacement of MPT group / formation of protein:taxol intermediate” value with serum protein (contacted with serum protein) is “observed to displace its MPT group and form a protein:taxol intermediate”. The “dissociation period of protein:taxol intermediate” value with serum protein (dialysis) was “hours or days”. Also, the “displacement of MPT group by serum albumen” value with serum albumen is reported as “particularly effective”. Besides, in series [3], the “time to complete conversion of 2 into taxol in plasma” value was ≤ 10 min. In [4] (5% HCl (pH 1.1)), the “stability in 5% HCl” value is reported as “unstable”. Moreover, the stability in brine entry in series [4] (brine) was “unstable”. Also, in series [4] (most aqueous media), the “stability in most aqueous media” value is listed as “remarkably stable compound in most aqueous media”. In addition, the “stability in phosphate buffered saline or ammonium acetate-phosphate buffer” value in series [4] (pH 6.0 to 7.3, 25° C.) is “over 21 days”. Besides, the “stability in aqueous media at physiological pH and ion strength” value in [4] (physiological pH and ion strength) is “essentially completely stable”. For the same molecule, the “taxol release in aqueous solutions” value in series [4] (sterile water, pH 6.2 phosphate buffered saline or 5% dextrose, 25° C., 11 minutes) is given as “no taxol release is observed over a period of 11 minutes”. Besides, in series [5] (OD at 340 nm), the “critical concentration (exponential increase in optical density; critical aggregation concentration)” value is 400 µM. Moreover, in [5] (TEM), the “diameter of helical fibrillar structures” value is on record as “ca. 80 Å”, the helical twist entry is given as “about 7” and the “length of helical fibrillar structures” value is given as “up to 800 Å”. In addition, the “concentration above which buffered solutions exhibit haze and diffuse scattering” value in series [5] (buffered solutions) is on record as “greater than 1×10^-3 M”. The “appearance of water solutions” value in series [5] (water, all concentrations examined) was “optically clear at all concentrations examined”. Further, the “displacement of MPT group by non-serum proteins” value with non-serum proteins was “seemed to lack this activity”. Moreover, in series [6], the “degradation during solubility and partition studies” value was “No degradation”; the “solubility in aqueous systems relative to clinically relevant dosages” value is listed as “higher than the clinically relevant dosages (3 to 30 mM)”; the “water solubility relative to taxol” value is on record as “significantly more soluble in water than the parent taxol”. Further, the “displacement of MPT group by immunoglobulins” value with immunoglobulins is listed as “particularly effective”.

The record behind these values is patent publication US6271384A, “Self-assembled taxo-diterpenoid nanostructures” (The Scripps Research Institute, priority 1998, dated 2001).
